Data on 19 compounds can be found in US10676468B2, “N-(3-heteroarylaryl)-4-arylarylcarboxamides and analogs as hedgehog pathway inhibitors and use thereof” (IMPACT Therapeutics, Inc., priority 2012, dated 2020).

Experiment [1] concerns Hedgehog Signaling Pathway. Put plainly: SAG-induced differentiation of C3H10T1/2 cells into osteoblastic cells, intracellular alkaline phosphatase activity. The note with it: Mus musculus, C3H 10T1/2, 120 h, 1 μM SAG, 5 days, alkaline phosphatase activity (OD405), read-out: IC50 values of compounds that inhibit Hh pathway. Format: cell-based, mouse. The text has this: The Application of SAG to Induce Pluripotent Mesenchymal Mouse Embryonic Cell C3H/10T1/2 to Differentiate into Osteoblastic Cells for the Determination of the Inhibitory Activity of N-(3-(1H-benzo[d]imidazol-2-yl)-4-chlorophenyl)-2-methyl-4-((2S,6R)-2,6-dimethylmorpholino)benzamide and Analogs on Hedgehog Signaling Pathway
The intracellular alkaline phosphatase activity is a reliable indication of the differentiation process. Therefore this enzymatic activity can be used to monitor the activity of hedgehog pathway inhibitors.
The C3H10T1/2 cells were grown in DMEM medium supplemented with 10% fetal bovine serum (FBS, Hyclone) at 37° C. with 5% CO2. 10000 cells were sown to each well of a 96-well microplate a day before the experiment and grown overnight. At the day of experiment, the inducing medium and inhibitor solutions were prepared as follows: the reference compound and testing compounds were serially diluted 1 to 3 and 1 to 10 in DMSO to seven concentrations with the eighth concentration being DMSO. A 10-fold dilution was prepared by mixing 10 μL of the DMSO dilution with 90 μL of fresh growing medium. […] Pre-sown cells were taken out from incubator and the medium was removed. To each well, 180 μL inducing medium was added and followed immediately with 20 μL of testing or reference compound dilutions. The testing compound concentrations are between 10 μM and 1 nM. The cells were then return to CO2 incubator to grow additional 5 days at 37° C.
(§1) After incubating for 5 days, the cells were taken out and intracellular alkaline phosphatase activity was tested. The alkaline phosphatase activity was measured as follows:
1) Preparation of Substrate Solution:
(§2) Solution A: A 0.5 mM MgCl2 (Sigma Prod. No. M-0250) solution was prepared.
(§3) After the pH value was adjusted to 9.8 with 5 M HCl at 37° C., the total volume was adjusted to 100 mL.
(§4) After it is completely dissolved the total volume was adjusted to 10 mL with the final concentration being 1 mM.
Substrate reaction medium: To 10 mL of solution B, 250 μL of solution A and 200 μL of solution C were added, and mixed well.
2) the Measurement of Intracellular Alkaline Phosphatase Activity:
(§5) After taking out the cells from the incubator, the cell culture medium was removed and cells were washed twice with PBS. 20 μL of lysis solution (0.2% Triton solution) was added to each well. After being shaken for 30 min at room temperature, each well of cells received 80 μL of substrate reaction medium. The microplate was placed immediately into a VariSkan Flashplate reader and absorbance at OD405 was read as background reading. The plate was replaced back to cell culture incubator at 37° C. for additional 30 min and the absorbance was read again using VariSkan Flash plate reader at OD405.
The data were analyzed by subtracting the background reading from the reading at 30 min, and the obtained numbers were plotted and analyzed with Prism 5 software (GraphPad). The phosphatase activity (calculated OD405) was plotted against the log concentration of testing compound, and the obtained plot was fitted with non-linear curve fitting equation to calculate IC50 values. The curve fitting equation is Y=Bottom+(Top−Bottom)/(1+10^((X−Log IC50))). X is the logarithm of concentration. Y is the measure of alkaline phosphatase activity (OD405).
(§6) The calculated IC50 value is a measurement of the inhibitory activity of compound to Hh pathway.

Experiment [2] has as its system Hedgehog Signaling Pathway. Put plainly: SHH-induced differentiation of C3H10T1/2 cells into osteoblastic cells, intracellular alkaline phosphatase activity. Format: cell-based, mouse. To be noted: Mus musculus, C3H 10T1/2, 120 h, 10 nM SHH-N, 5 days, alkaline phosphatase activity (OD405), read-out: IC50 values of compounds that inhibit Hh pathway. The method, then: The Application of SHH to Induce Pluripotent Mesenchymal Mouse Embryonic Cell C3H10T1/2 to Differentiate into Osteoblastic Cells for the Determination of the Inhibitory Activity of N-(3-(1H-benzo[d]imidazol-2-yl)-4-chlorophenyl)-2-methyl-4-((2S,6R)-2,6-dimethylmorpholino)benzamide and Analogs on Hedgehog Signaling Pathway
The C3H10T1/2 cells were grown in DMEM medium supplemented with 10% fetal bovine serum (FBS, Hyclone) at 37° C. with 5% CO2. 10000 cells were sown to each well of a 96-well microplate a day before the experiment and grown overnight. […] The reference compound and testing compounds were serially diluted 1 to 3 and 1 to 10 in DMSO to seven concentrations with the eighth concentration being DMSO. A 10-fold dilution was prepared by mixing 10 μL of the DMSO dilutions with 90 μL of fresh growing medium. Pre-sown cells were taken out from incubator and the medium was removed. To each well, 180 μL of inducing medium containing 10 nM of SHH-N was added and followed immediately with 20 μL of 10× testing or reference compound dilutions. The testing compound concentrations are between 10 μM and 10 nM. The cells were then returned to CO2 incubator to grow additional 5 days at 37° C.
as §1
3) Preparation of Substrate Solution:
as §2, §3, §4
Substrate reaction medium: to 10 mL of solution B, 250 μL of solution A and 200 μL of solution C were added, and mixed well.
4) The Measurement of Intracellular Alkaline Phosphatase Activity:
as §5
The data were analyzed by subtracting the background reading from the reading at 30 min, and the obtained numbers were plotted and analyzed with Prism 5 software (GraphPad). The phosphatase activity (calculated OD405) was plotted against the log concentration of testing compound, and the obtained plot was fitted with non-linear curve fitting equation to calculate IC50 values. The curve fitting equation is Y=Bottom+(Top−Bottom)/(1+10^(X−Log IC50)). X is the logarithm of concentration. Y is the measure of alkaline phosphatase activity (OD405).
as §6

For the compound `O=C1c2ccc(-c3ccccc3)cc2CCN1c1ccc(Cl)c(-c2nc3ccccc3[nH]2)c1` [Example 29, 2-(3-(1H-benzo[d]imidazol-2-yl)-4-chlorophenyl)-6-phenyl-3,4-dihydroisoquinolin-1(2H)-one], the concentration for half-maximal inhibition (IC50) (commonly the midpoint of a concentration-inhibition curve) in experiment [1] is > 10000 nM; in experiment [2], 72 nM.

With `Cc1cc(N2CCOCC2)ccc1C(=O)Nc1ccc(Cl)c(-c2nc3ccccc3[nH]2)c1` [Example 30, N-(3-(1H-benzo[d]imidazol-2-yl)-4-chlorophenyl)-2-methyl-4-morpholinobenzamide], the figures for the IC50 in experiment [1] and in experiment [2] were 88 nM and 31 nM, respectively.

Turning to `Cc1cc(N2CCCCC2)ccc1C(=O)Nc1ccc(Cl)c(-c2nc3ccccc3[nH]2)c1` [Example 31, N-(3-(1H-benzo[d]imidazol-2-yl)-4-chlorophenyl)-2-methyl-4-(piperidin-1-yl)benzamide], the concentration for half-maximal inhibition (IC50) turned out to be 229 nM in experiment [1] and 44 nM in experiment [2].

Take `C[C@@H]1CN(c2ccc(C(=O)Nc3ccc(Cl)c(-c4nc5ccccc5[nH]4)c3)c(N)c2)C[C@H](C)O1` [Example 33, N-(3-(1H-benzo[d]imidazol-2-yl)-4-chlorophenyl)-2-amino-4-((2S,6R)-2,6-dimethylmorpholino)benzamide]: the 50% inhibitory concentration (IC50) in experiment [1] came to 83 nM; in experiment [2], 22 nM.

For the compound `C[C@@H]1CN(c2ccc3c(=O)n(-c4ccc(Cl)c(-c5nc6ccccc6[nH]5)c4)cnc3c2)C[C@H](C)O1` [Example 34, 3-(3-(1H-benzo[d]imidazol-2-yl)-4-chlorophenyl)-7-((2S,6R)-2,6-dimethylmorpholino)quinazolin-4(3H)-one], the concentration for half-maximal inhibition (IC50) in experiment [1] is 263 nM; in experiment [2], 162 nM.

For `C[C@@H]1CN(c2cc(Cl)c(C(=O)Nc3ccc(Cl)c(-c4nc5ccccc5[nH]4)c3)cn2)C[C@H](C)O1` [Example 36, N-(3-(1H-benzo[d]imidazol-2-yl)-4-chlorophenyl)-4-chloro-6-((2S,6R)-2,6-dimethylmorpholino)nicotinamide], the IC50 in experiment [1] came out at 362 nM; in experiment [2] it was 95 nM.

Take `Cc1cc(C(=O)Nc2ccc(Cl)c(-c3nc4ccccc4[nH]3)c2)cnc1N1C[C@@H](C)O[C@@H](C)C1` [Example 37, N-(3-(1H-benzo[d]imidazol-2-yl)-4-chlorophenyl)-5-methyl-6-((2S,6R)-2,6-dimethylmorpholino)nicotinamide]: the half-maximal inhibitory concentration (IC50) in experiment [1] is 167 nM; in experiment [2] it was 52 nM.

In the case of `Cc1cc(-c2cccnc2)ccc1C(=O)Nc1ccc(Cl)c(-c2nc3ccccc3[nH]2)c1` [Example 40, N-(3-(1H-benzo[d]imidazol-2-yl)-4-chlorophenyl)-2-methyl-4-(pyridin-3-yl)benzamide], the half-inhibitory concentration (IC50) in experiment [1] turned out to be 27 nM; in experiment [2], 13 nM.

As to `Cc1cc(-c2ccoc2)ccc1C(=O)Nc1ccc(Cl)c(-c2nc3ccccc3[nH]2)c1` [Example 41, N-(3-(1H-benzo[d]imidazol-2-yl)-4-chlorophenyl)-2-methyl-4-(furan-3-yl)benzamide], the IC50 was 99 nM in experiment [1] and 32 nM in experiment [2].

As for `Cc1cc(-c2ccsc2)ccc1C(=O)Nc1ccc(Cl)c(-c2nc3ccccc3[nH]2)c1` [Example 42, N-(3-(1H-benzo[d]imidazol-2-yl)-4-chlorophenyl)-2-methyl-4-(thiophen-3-yl)benzamide], the figures for the IC50 in experiment [1] and in experiment [2] were 230 nM and 337 nM, respectively.

For `O=C(Nc1ccc(Cl)c(-c2nc3ccccc3[nH]2)c1)C1CCC(c2ccccc2)CC1` (centres unmarked) [Example 44, N-(3-(1H-benzo[d]imidazol-2-yl)-4-chlorophenyl)-4-phenylcyclohexanecarboxamide], the IC50 in experiment [1] was found to be 139 nM; in experiment [2], 18 nM.

For `Cc1cc(-c2ccc(C(F)(F)F)cc2)ccc1C(=O)Nc1cccc(-c2nc3ccccc3[nH]2)c1` [Example 45, N-(3-(1H-benzo[d]imidazol-2-yl)phenyl)-3-methyl-4′-(trifluoromethyl)biphenyl-4-carboxamide], the results for the half-maximal inhibitory concentration (IC50) in experiment [1] and in experiment [2] were 284 nM and 20 nM, respectively.

Consider `Cc1cc(-c2ccc(C(F)(F)F)cc2)ccc1C(=O)N(C)c1ccc(Cl)c(-c2nc3ccccc3[nH]2)c1` [Example 48, N-(3-(1H-benzo[d]imidazol-2-yl)-4-chlorophenyl)-N,3-dimethyl-4′-(trifluoromethyl)biphenyl-4-carboxamide], for which the concentration for half-maximal inhibition (IC50) in experiment [1] and in experiment [2] was > 10000 nM in each case.

In the case of `Cc1cc(-c2ccc(C(F)(F)F)cc2)ccc1C(=O)Nc1ccc(Cl)c(-c2ncc(-c3cccnc3)[nH]2)c1` [Example 51, N-(3-(5-(pyridin-3-yl)-1H-imidazol-2-yl)-4-chlorophenyl)-3-methyl-4′-(trifluoromethyl)biphenyl-4-carboxamide], the IC50 in experiment [1] was > 10000 nM; in experiment [2] it was 77 nM.

For the compound `Cc1cc(-c2ccc(C(F)(F)F)cc2)ccc1C(=O)Nc1ccc(Cl)c(-c2nnc3ccccn23)c1` [Example 52, N-(3-([1,2,4]triazolo[4,3-a]pyridin-3-yl)-4-chlorophenyl)-3-methyl-4′-(trifluoromethyl)biphenyl-4-carboxamide], the IC50 amounted to 740 nM in experiment [1] and 465 nM in experiment [2].

Turning to `Cc1cc(-c2ccc(C(F)(F)F)cc2)ccc1C(=O)Nc1ccc(Cl)c(-c2nnc3ncccn23)c1` [Example 53, N-(3-([1,2,4]triazolo[4,3-a]pyrimidin-3-yl)-4-chlorophenyl)-3-methyl-4′-(trifluoromethyl)biphenyl-4-carboxamide], the concentration for half-maximal inhibition (IC50) in experiment [1] and in experiment [2] was > 10000 nM in each case.

For the compound `Cc1cc(-c2ccc(C(F)(F)F)cc2)ccc1C(=O)Nc1ccc(Cl)c(-c2nnc3cnccn23)c1` [Example 54, N-(3-([1,2,4]triazolo[4,3-a]pyrazin-3-yl)-4-chlorophenyl)-3-methyl-4′-(trifluoromethyl)biphenyl-4-carboxamide], the half-inhibitory concentration (IC50) in experiment [1] and in experiment [2] was > 10000 nM throughout.

Consider `Cc1cc(-c2ccc(C(F)(F)F)cc2)ccc1C(=O)Nc1cccc(-c2cn3cccnc3n2)c1` [Example 55, N-(3-(imidazo[1,2-a]pyrimidin-2-yl)phenyl)-3-methyl-4′-(trifluoromethyl)biphenyl-4-carboxamide], for which the IC50 in experiment [1] and in experiment [2] was > 10000 nM in each case.

On to `Cc1cc(-c2ccc(C(F)(F)F)cc2)ccc1C(=O)Nc1cccc(-c2cn3ccccc3n2)c1` [Example 56, N-(3-(imidazo[1,2-a]pyridin-2-yl)phenyl)-3-methyl-4′-(trifluoromethyl)biphenyl-4-carboxamide], for which the IC50 in experiment [1] is 2370 nM; in experiment [2], 189 nM.
